“And” between values parts separate entries of the source, which are not always exact repeats. Identical values can stand only once. Blank lines part the entries; values can stand above or below the compound they belong to.
What was measured:
FR-alpha = FR-alpha (Homo sapiens, UniProt P15328); assay: Selectivity for FR-alpha versus oxidized folic acid derivative (summary statement)
D4 (FR-β) = biological target: T1, D4 (FR-β) (Homo sapiens, UniProt P14207); assay: Cell uptake and internalization in FR-β transfected CHO cells (D4); format: cell-based
T1 construct: expressed in transfected cells; host or cells: CHO cells (D4)
Procedure: (§1) The uptake and internalization of the oxidized (^18F-AzaFol) and reduced ^18F-folates (6S-isomer and 6R-isomer of ^18F-5-Me-Aza-THF) in D4 and RT16 cells which express the FR-α and FR-β, […] was studied. Both cell lines were kindly provided by Larry Matherly Wayne State University, Detroit, U.S.; Golani et al., J Med Chem, 2016, 59, 7856.
When using D4 cells that express the FR-β, the uptake of ^18F-AzaFol and the 6S-isomer of the reduced radiotracer reached approximately 70% after 1 h incubation and 80% after 3 h incubation. The internalized fraction of ^18F-AzaFol and the 6S-isomer of the reduced version was 20% and 12%, respectively, after 1 h incubation. These numbers increased slightly when the incubation time was extended to 3 h. […] No change was observed after additional two hours of incubation.

RT16 (FR-α) = biological target: T2, RT16 (FR-α) (Homo sapiens, UniProt P15328); assay: Cell uptake and internalization in FR-α transfected CHO cells (RT16); format: cell-based
T2 construct: expressed in transfected cells; host or cells: CHO cells (RT16)
Procedure: as §1
The internalized fraction of the radiotracers reached 8-10% after 1 h and increased slightly up to 9-12% after 3 h incubation.

[1] = Distribution coefficient (log D7.4), shake flask method; format: physicochemical; conditions: n-octanol / phosphate buffer pH 7.4, room temperature
KB tumor-bearing mice = assay: Biodistribution studies in KB tumor-bearing mice
[2] = Metabolite studies / in vivo stability (radio-UPLC of blood plasma, liver, urine); design: species or system mice; conditions: samples taken p.i.
Procedure: (§2) In order to investigate FR-specific cell uptake and internalization, cell uptake and internalization of 6R-[^18F]1 and 6S-[^18F]1 were carried out using FR-positive KB cells. Cell uptake increased constantly over time for both diastereoisomers resulting in an uptake of about 60% (calculated per 0.3 mg of protein) of total added radioactivity after 3 h of incubation at 37° C. (FIG. 22).
The folate radiotracer 6S/6R-[^18F]5 (1:1 ratio, 53.7-52.3 MBq; 0.62-1.15 nmol) were intravenously injected into mice in order to determine the in vivo stability of the tracers. […] Ice-cold methanol containing 10 mg/mL 2-mercaptoethanol and 0.025% (v/v) ammonium hydroxide was added to the blood plasma, homogenized liver and urine in order to precipitate the proteins.^6 After centrifugation, the supernatants of the blood plasma, liver and urine samples were analyzed by radio-UPLC (FIG. 4).

FR-positive KB cells = assay: Cell uptake and internalization using FR-positive KB cells; format: cell-based
Procedure: as §2

Folate Receptor = Folate Receptor (Homo sapiens, UniProt P15328); conditions: cited from earlier work
[3] = KB tumor-bearing mice, 30 min p.i.
[4] = KB tumor-bearing mice, 30 min p.i., ratio
[5] = KB tumor-bearing mice, 60 min p.i.
[6] = KB tumor-bearing mice, 60 min p.i. & Folic Acid (100 μg 10 min prior)
[7] = KB tumor-bearing mice, 60 min p.i., ratio
[8] = KB tumor-bearing mice, 90 min p.i.
[9] = KB tumor-bearing mice, 90 min p.i., ratio
[10] = KB tumor-bearing mice, 90 min p.i., listed as 6S-form
[11] = KB tumor-bearing mice, 90 min p.i., listed as 6S-isomer

T1 sequence (P14207 17-230): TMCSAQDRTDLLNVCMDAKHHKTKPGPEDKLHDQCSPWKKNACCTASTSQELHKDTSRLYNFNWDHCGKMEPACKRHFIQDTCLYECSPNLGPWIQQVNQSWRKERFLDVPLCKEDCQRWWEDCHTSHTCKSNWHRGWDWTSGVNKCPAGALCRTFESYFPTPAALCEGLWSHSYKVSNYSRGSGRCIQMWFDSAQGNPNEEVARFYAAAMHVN
T2 sequence (P15328 25-234): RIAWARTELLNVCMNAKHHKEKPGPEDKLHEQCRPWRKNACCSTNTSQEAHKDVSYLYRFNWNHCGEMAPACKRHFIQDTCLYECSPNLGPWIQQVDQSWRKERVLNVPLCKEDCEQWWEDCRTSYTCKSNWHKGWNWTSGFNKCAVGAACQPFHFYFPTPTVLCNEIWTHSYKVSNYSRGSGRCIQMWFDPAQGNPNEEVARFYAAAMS
FR-alpha, sequence (P15328 25-234, species assumed): as the sequence (P15328 25-234) above
Folate Receptor, sequence (P15328 25-234): as above

fold higher selectivity for FR-alpha than the respective oxidized folic acid derivative (FR-alpha): 50 fold
Compound: CN1c2c(nc(N)[nH]c2=O)NCC1CNc1ccc(C(=O)N[C@@H](CCC(=O)O)C(=O)O)c([18F])n1 (some centres unmarked) [3′-aza-2′-[^18]fluoro-5-methyltetrahydrofolate]

uptake into D4 cells (in words) (D4 (FR-β); D4 (FR-β) cells): significant uptake
internalized fraction (D4 (FR-β); D4 cells, 1 h incubation): 12%
uptake (D4 (FR-β); D4 cells, 1 h incubation): approximately 70%
uptake (D4 (FR-β); D4 cells, 3 h incubation): ~80%
uptake into RT16 cells (in words) (RT16 (FR-α)): significant uptake
logD7.4 [1]: −4.6 ± 0.1
Biodistribution: Blood (KB tumor-bearing mice; [3]): 1.52 ± 0.31 % IA/g
Biodistribution: Bone (KB tumor-bearing mice; [3]): 1.70 ± 0.13 % IA/g
Biodistribution: Feaces (KB tumor-bearing mice; [3]): 3.71 ± 2.34 % IA/g
Biodistribution: Gall Bladder (KB tumor-bearing mice; [3]): 20.0 ± 9.00 % IA/g
Biodistribution: Heart (KB tumor-bearing mice; [3]): 2.02 ± 0.22 % IA/g
Biodistribution: Intestines (KB tumor-bearing mice; [3]): 2.61 ± 0.65 % IA/g
Biodistribution: KB Tumor (KB tumor-bearing mice; [3]): 11.13±0.90 % IA/g and 11.1 ± 0.90 % IA/g
Biodistribution: Kidneys (KB tumor-bearing mice; [3]): 42.5 ± 2.73 % IA/g
Biodistribution: Liver (KB tumor-bearing mice; [3]): 8.10 ± 1.16 % IA/g
Biodistribution: Lung (KB tumor-bearing mice; [3]): 2.31 ± 0.42 % IA/g
Biodistribution: Muscle (KB tumor-bearing mice; [3]): 1.36 ± 0.25 % IA/g
Biodistribution: Salivary glands (KB tumor-bearing mice; [3]): 13.8 ± 2.06 % IA/g
Biodistribution: Spleen (KB tumor-bearing mice; [3]): 1.90 ± 0.34 % IA/g
Biodistribution: Stomach (KB tumor-bearing mice; [3]): 2.54 ± 0.56 % IA/g
Tu-to-blood (KB tumor-bearing mice; [4]): 7.41 ± 0.96
Tu-to-liver (KB tumor-bearing mice; [4]): 1.38 ± 0.16
Biodistribution: Kidneys (KB tumor-bearing mice; KB tumor-bearing mice, 30 min p.i., listed as 6S-form): 42.5±2.73 % IA/g
Biodistribution: Liver (KB tumor-bearing mice; KB tumor-bearing mice, 30 min p.i., listed as 6S-tracer): 8.10±1.16 % IA/g
Biodistribution: Blood (KB tumor-bearing mice; [5]): 1.26 ± 0.08 % IA/g
Biodistribution: Bone (KB tumor-bearing mice; [5]): 1.38 ± 0.14 % IA/g
Biodistribution: Feaces (KB tumor-bearing mice; [5]): 4.85 ± 1.95 % IA/g
Biodistribution: Gall Bladder (KB tumor-bearing mice; [5]): 16.6 ± 8.91 % IA/g
Biodistribution: Heart (KB tumor-bearing mice; [5]): 1.53 ± 0.15 % IA/g
Biodistribution: Intestines (KB tumor-bearing mice; [5]): 2.58 ± 0.42 % IA/g
Biodistribution: KB Tumor (KB tumor-bearing mice; [5]): 14.2 ± 1.91 % IA/g
Biodistribution: Kidneys (KB tumor-bearing mice; [5]): 37.5 ± 3.61 % IA/g
Biodistribution: Liver (KB tumor-bearing mice; [5]): 6.28 ± 0.66 % IA/g
Biodistribution: Lung (KB tumor-bearing mice; [5]): 2.04 ± 0.09 % IA/g
Biodistribution: Muscle (KB tumor-bearing mice; [5]): 1.29 ± 0.14 % IA/g
Biodistribution: Salivary glands (KB tumor-bearing mice; [5]): 13.8 ± 1.28 % IA/g
Biodistribution: Spleen (KB tumor-bearing mice; [5]): 1.57 ± 0.16 % IA/g
Biodistribution: Stomach (KB tumor-bearing mice; [5]): 1.84 ± 0.33 % IA/g
Biodistribution: Blood (KB tumor-bearing mice; [6]): 1.09 ± 0.28 % IA/g
Biodistribution: Bone (KB tumor-bearing mice; [6]): 0.49 ± 0.12 % IA/g
Biodistribution: Feaces (KB tumor-bearing mice; [6]): 8.42 ± 2.10 % IA/g
Biodistribution: Gall Bladder (KB tumor-bearing mice; [6]): 5.87 ± 0.45 % IA/g
Biodistribution: Heart (KB tumor-bearing mice; [6]): 0.50 ± 0.13 % IA/g
Biodistribution: Intestines (KB tumor-bearing mice; [6]): 4.34 ± 0.93 % IA/g
Biodistribution: KB Tumor (KB tumor-bearing mice; [6]): 2.11 ± 0.38 % IA/g
Biodistribution: Kidneys (KB tumor-bearing mice; [6]): 2.28 ± 0.95 % IA/g
Biodistribution: Liver (KB tumor-bearing mice; [6]): 4.76 ± 0.87 % IA/g
Biodistribution: Lung (KB tumor-bearing mice; [6]): 0.84 ± 0.20 % IA/g
Biodistribution: Muscle (KB tumor-bearing mice; [6]): 0.26 ± 0.06 % IA/g
Biodistribution: Salivary glands (KB tumor-bearing mice; [6]): 0.89 ± 0.26 % IA/g
Biodistribution: Spleen (KB tumor-bearing mice; [6]): 0.90 ± 0.24 % IA/g
Biodistribution: Stomach (KB tumor-bearing mice; [6]): 0.73 ± 0.32 % IA/g
Tu-to-blood (KB tumor-bearing mice; [7]): 11.3 ± 1.13
Tu-to-kidney (KB tumor-bearing mice; [7]): 0.38 ± 0.04
Tu-to-liver (KB tumor-bearing mice; [7]): 1.87 ± 0.96
Biodistribution: Blood (KB tumor-bearing mice; [8]): 1.16 ± 0.20 % IA/g
Biodistribution: Bone (KB tumor-bearing mice; [8]): 1.49 ± 0.30 % IA/g
Biodistribution: Feaces (KB tumor-bearing mice; [8]): 4.57 ± 1.98 % IA/g
Biodistribution: Gall Bladder (KB tumor-bearing mice; [8]): 11.4 ± 7.18 % IA/g
Biodistribution: Heart (KB tumor-bearing mice; [8]): 1.48 ± 0.17 % IA/g
Biodistribution: Intestines (KB tumor-bearing mice; [8]): 2.34 ± 0.39 % IA/g
Biodistribution: KB Tumor (KB tumor-bearing mice; [8]): 19.2 ± 4.16 % IA/g
Biodistribution: Kidneys (KB tumor-bearing mice; [8]): 42.3 ± 7.05 % IA/g
Biodistribution: Liver (KB tumor-bearing mice; [8]): 5.86 ± 1.11 % IA/g
Biodistribution: Lung (KB tumor-bearing mice; [8]): 2.08 ± 0.35 % IA/g
Biodistribution: Muscle (KB tumor-bearing mice; [8]): 1.24 ± 0.14 % IA/g
Biodistribution: Salivary glands (KB tumor-bearing mice; [8]): 21.4 ± 4.59 % IA/g
Biodistribution: Spleen (KB tumor-bearing mice; [8]): 1.82 ± 0.49 % IA/g
Biodistribution: Stomach (KB tumor-bearing mice; [8]): 1.69 ± 0.33 % IA/g
Tu-to-blood (KB tumor-bearing mice; [9]): 16.5 ± 0.59
Tu-to-liver (KB tumor-bearing mice; [9]): 3.30 ± 0.59
Biodistribution: Kidneys (KB tumor-bearing mice; [10]): 42.3±7.05 % IA/g
Biodistribution: Liver (KB tumor-bearing mice; [10]): 5.86±1.11 % IA/g
Biodistribution: Salivary glands (KB tumor-bearing mice; [10]): 21.4±4.59 % IA/g
Biodistribution: KB Tumor (KB tumor-bearing mice; [11]): 19.2±4.16 % IA/g
Biodistribution: Spleen (KB tumor-bearing mice; [11]): 1.82±0.49 % IA/g
Biodistribution: Liver (KB tumor-bearing mice; KB tumor-bearing mice, 90 min p.i., listed as S-isomer): 5.86±1.11 % IA/g
Specificity of tumor binding (KB tumor-bearing mice; blocking by pre-injection of folic acid): 89%
factor of increase of tumor-to-kidney ratio (KB tumor-bearing mice; from 30 min p.i. to 90 min p.i.): 1.7
in vivo stability [2]: Only intact parent compounds were found
Compound: 6S-3′-aza-2′-[^18F]fluoro-5-MTHF [6S-[^18F]1]
internalized activity (FR-positive KB cells; 37° C.): ~16%
cell uptake (% of total added radioactivity) (FR-positive KB cells; 3 h incubation at 37° C., calculated per 0.3 mg of protein): about 60%
PET/CT: KB tumor xenograft uptake (KB tumor xenografts; already 1 h p.i.): High KB tumor xenograft uptake
PET/CT: blocking studies, uptake in all FR-positive tissues (KB tumor xenografts; folic acid injected 10 minutes prior to radiotracer): remarkably reduced uptake

Compound: Nc1nc2ncc(CNc3ccc(C(=O)N[C@H](CCC(=O)NC[C@H](N)C(=O)N[C@@H](CC(=O)O)C(=O)N[C@@H](CS)C(=O)O)C(=O)O)cc3)nc2c(=O)[nH]1 [EC20]
Kd (Folate Receptor): 12 nM
